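Step 1: Grow cells in 96-well plates. Step 2: Expose to compound for 48 hours at 5 concentrations. Step 3: Interpolate endpoints linearly; if unreached, use highest concentration. TGI is the concentration that stops growth completely.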
How the values were obtained:
Assay in all cases: inhibition of tumour cell growth, NCI panel, 48 h
[1] = tested on: M14 melanoma
[2] = tested on: NCI-H23 lung
[3] = tested on: EKVX NSCLC
[4] = tested on: XF 498 CNS
[5] = tested on: OVCAR-3 ovarian
[6] = tested on: RXF 393 renal
[7] = tested on: COLO 205 colon
[8] = tested on: HOP-18 NSCLC
[9] = tested on: CAKI-1 renal
[10] = tested on: RPMI-8226 leukemia
[11] = tested on: NCI-H460 lung
[12] = tested on: SN12C renal
[13] = tested on: SF-268 CNS
[14] = tested on: SF-295 CNS
[15] = tested on: MOLT-4 leukemia
[16] = tested on: DMS 114 small cell lung
[17] = tested on: SK-OV-3 ovarian
[18] = tested on: UO-31 renal
[19] = tested on: SNB-19 CNS
[20] = tested on: SNB-75 CNS
[21] = tested on: HCC-2998 colon
[22] = tested on: OVCAR-5 ovarian
[23] = tested on: KM20L2 colon
[24] = tested on: LOX IMVI melanoma
[25] = tested on: HOP-62 NSCLC
[26] = tested on: K-562 leukemia
[27] = tested on: HCT-15 colon
[28] = tested on: TK-10 renal
[29] = tested on: SK-MEL-28 melanoma
[30] = tested on: NCI-H226 lung
[31] = tested on: ACHN renal
[32] = tested on: A549 NSCLC
[33] = tested on: HL-60(TB) leukemia
[34] = tested on: MALME-3M melanoma
[35] = tested on: OVCAR-8 ovarian
[36] = tested on: SF-539 CNS
[37] = tested on: A498 renal
[38] = tested on: UACC-257 melanoma
[39] = tested on: KM12 colon
[40] = tested on: HT29 colon
[41] = tested on: OVCAR-4 ovarian
[42] = tested on: LXFL 529 NSCLC
[43] = tested on: M19-MEL melanoma
[44] = tested on: IGROV1 ovarian
[45] = tested on: UACC-62 melanoma
[46] = tested on: HCT-116 colon
[47] = tested on: SK-MEL-5 melanoma
[48] = tested on: 786-0 renal
[49] = tested on: HOP-92 NSCLC
[50] = tested on: NCI-H522 lung
[51] = tested on: SW-620 colon
[52] = tested on: CCRF-CEM leukemia
[53] = tested on: U251 CNS
[54] = tested on: DLD-1 colon
[55] = tested on: DMS 273 small cell lung
[56] = tested on: RXF-631 renal
[57] = tested on: SR leukemia
[58] = tested on: SK-MEL-2 melanoma

## CC(C)=Cc1cc(C(=O)NCCNC(=O)c2cc(C=C(C)C)nc(NC#N)n2)nc(NC#N)n1
[1]
  TGI: > 100 µM
[2]
  TGI: > 100 µM
[3]
  TGI: > 100 µM
[4]
  TGI: > 100 µM
[5]
  TGI: > 100 µM
[6]
  TGI: > 100 µM
[7]
  TGI: > 100 µM
[8]
  TGI: > 100 µM
[9]
  TGI: > 100 µM
[10]
  TGI: > 100 µM
[11]
  TGI: > 100 µM
[12]
  TGI: > 100 µM
[13]
  TGI: > 100 µM
[14]
  TGI: > 100 µM
[15]
  TGI: > 100 µM
[16]
  TGI: > 100 µM
[17]
  TGI: > 100 µM
[18]
  TGI: > 100 µM
[19]
  TGI: > 100 µM
[20]
  TGI: > 100 µM
[21]
  TGI: > 100 µM
[22]
  TGI: > 100 µM
[23]
  TGI: > 100 µM
[24]
  TGI: > 100 µM
[25]
  TGI: > 100 µM
[26]
  TGI: > 100 µM
[27]
  TGI: > 100 µM
[28]
  TGI: > 100 µM
[29]
  TGI: > 100 µM
[30]
  TGI: > 100 µM
[31]
  TGI: > 100 µM
[32]
  TGI: > 100 µM
[33]
  TGI: > 100 µM
[34]
  TGI: > 100 µM
[35]
  TGI: > 100 µM
[36]
  TGI: > 100 µM
[37]
  TGI: > 100 µM
[38]
  TGI: > 100 µM
[39]
  TGI: > 100 µM
[40]
  TGI: > 100 µM
[41]
  TGI: > 100 µM
[42]
  TGI: > 100 µM
[43]
  TGI: > 100 µM
[44]
  TGI: > 100 µM
[45]
  TGI: > 100 µM
[46]
  TGI: > 100 µM
[47]
  TGI: > 100 µM
[48]
  TGI: > 100 µM
[49]
  TGI: > 100 µM
[50]
  TGI: > 100 µM
[51]
  TGI: > 100 µM
[52]
  TGI: > 100 µM
[53]
  TGI: > 100 µM

## COc1cc(=O)oc(/C=C/CO)c1C
[1]
  TGI: > 100 µM
[2]
  TGI: > 100 µM
[3]
  TGI: > 100 µM
[4]
  TGI: > 100 µM
[5]
  TGI: > 100 µM
[6]
  TGI: > 100 µM
[7]
  TGI: > 100 µM
[8]
  TGI: > 100 µM
[9]
  TGI: > 100 µM
[12]
  TGI: > 100 µM
[13]
  TGI: > 100 µM
[14]
  TGI: > 100 µM
[15]
  TGI: > 100 µM
[16]
  TGI: > 100 µM
[17]
  TGI: > 100 µM
[18]
  TGI: > 100 µM
[19]
  TGI: > 100 µM
[20]
  TGI: > 100 µM
[21]
  TGI: > 100 µM
[22]
  TGI: > 100 µM
[23]
  TGI: > 100 µM
[24]
  TGI: > 100 µM
[54]
  TGI: > 100 µM
[25]
  TGI: > 100 µM
[26]
  TGI: > 100 µM
[28]
  TGI: > 100 µM
[29]
  TGI: > 100 µM
[30]
  TGI: > 100 µM
[31]
  TGI: > 100 µM
[32]
  TGI: > 100 µM
[33]
  TGI: > 100 µM
[34]
  TGI: > 100 µM
[35]
  TGI: > 100 µM
[36]
  TGI: > 100 µM
[37]
  TGI: > 100 µM
[38]
  TGI: > 100 µM
[39]
  TGI: > 100 µM
[40]
  TGI: > 100 µM
[41]
  TGI: > 100 µM
[42]
  TGI: > 100 µM
[43]
  TGI: > 100 µM
[55]
  TGI: > 100 µM
[44]
  TGI: > 100 µM
[45]
  TGI: > 100 µM
[46]
  TGI: > 100 µM
[56]
  TGI: > 100 µM
[47]
  TGI: > 100 µM
[48]
  TGI: > 100 µM
[49]
  TGI: > 100 µM
[50]
  TGI: > 100 µM
[51]
  TGI: > 100 µM
[52]
  TGI: > 100 µM
[53]
  TGI: > 100 µM
[57]
  TGI: > 100 µM

## COC(=O)Cc1nn2c(nc1=O)sc1ccc3ccccc3c12
[1]
  TGI: > 100 µM
[2]
  TGI: > 100 µM
[3]
  TGI: > 100 µM
[5]
  TGI: > 100 µM
[6]
  TGI: 96 µM
[7]
  TGI: > 100 µM
[8]
  TGI: > 100 µM
[9]
  TGI: > 100 µM
[11]
  TGI: > 100 µM
[12]
  TGI: > 100 µM
[58]
  TGI: > 100 µM
[15]
  TGI: > 100 µM
[17]
  TGI: > 100 µM
[18]
  TGI: > 100 µM
[19]
  TGI: > 100 µM
[20]
  TGI: 76.3 µM
[21]
  TGI: > 100 µM
[22]
  TGI: > 100 µM
[23]
  TGI: > 100 µM
[24]
  TGI: > 100 µM
[54]
  TGI: > 100 µM
[25]
  TGI: > 100 µM
[26]
  TGI: > 100 µM
[27]
  TGI: > 100 µM
[29]
  TGI: > 100 µM
[30]
  TGI: > 100 µM
[31]
  TGI: > 100 µM
[32]
  TGI: > 100 µM
[33]
  TGI: > 100 µM
[34]
  TGI: > 100 µM
[35]
  TGI: > 100 µM
[36]
  TGI: > 100 µM
[37]
  TGI: > 100 µM
[38]
  TGI: > 100 µM
[39]
  TGI: > 100 µM
[40]
  TGI: > 100 µM
[41]
  TGI: > 100 µM
[42]
  TGI: > 100 µM
[43]
  TGI: > 100 µM
[44]
  TGI: > 100 µM
[46]
  TGI: > 100 µM
[56]
  TGI: > 100 µM
[47]
  TGI: > 100 µM
[48]
  TGI: > 100 µM
[49]
  TGI: > 100 µM
[50]
  TGI: > 100 µM
[51]
  TGI: > 100 µM
[52]
  TGI: > 100 µM
[53]
  TGI: 74.1 µM
[57]
  TGI: > 100 µM
